Converted amounts (≈) assume the structure as drawn. The source made the active and inactive calls. No cut-off for these calls is given here. Peptide text beside a SMILES is read from it.
Tests used:
HeLa [1] = assay: Antiproliferative activity against human HeLa cells assessed as reduction in cell viability after 48 hrs by MTT assay; format: functional, cell-based
HeLa [2] = assay: Antiproliferative activity against human HeLa cells assessed as reduction in cell viability in presence of cisplatin after 48 hrs by MTT assay; format: functional, cell-based
HeLa [3] = assay: Synergistic antiproliferative activity against human HeLa cells assessed as FICI in presence of cisplatin after 48 hrs by MTT assay; format: functional
BE(2)-C [4] = assay: Synergistic antiproliferative activity against human BE(2)-C cells assessed as FICI in presence of cisplatin after 48 hrs by MTT assay; format: functional
BE(2)-C [5] = assay: Ratio of IC50 for antiproliferative activity against human BE(2)-C cells to IC50 for antiproliferative activity against human BE(2)-C cells in presence of cisplatin; format: functional
HeLa [6] = assay: Antiproliferative activity against human HeLa cells assessed as cell viability at 10.2 uM after 48 hrs by MTT assay relative to control; format: functional; conditions: read-out: Activity
HeLa [7] = assay: Antiproliferative activity against human HeLa cells assessed as cell viability at 10.2 uM in presence of 6.3 uM cisplatin after 48 hrs by MTT assay relative to control; format: functional
BE(2)-C [8] = assay: Antiproliferative activity against human BE(2)-C cells assessed as cell viability at 10.3 uM after 48 hrs by MTT assay relative to control; format: functional; conditions: read-out: Activity
BE(2)-C [9] = assay: Antiproliferative activity against human BE(2)-C cells assessed as cell viability at 10.3 uM in presence of 5.3 uM cisplatin after 48 hrs by MTT assay relative to control; format: functional
[10] = biological target: T1, 20S proteasome (Homo sapiens) (UniProt P49721+P20618+P28074+P28062+P28065+P28072+P25786+P25787+P25788+P25789+P28066+P60900+O14818+Q8TAA3+P40306+A5LHX3+P49720+P28070+Q99436); assay: Inhibition of 20S proteasome in human HeLa cells at 2xIC50 using LLVY-R110 peptide as substrate measured up to 36 hrs by fluorescence based assay; format: cell-based
[11] = biological target: T1, 20S proteasome (Homo sapiens); assay: Potency index, ratio of ixazomib IC50 to compound IC50 for inhibition of human 20S proteasome using Suc-LLVY-AMC as substrate measured every 5 mins for 120 mins by fluorescence based assay; format: protein-complex assay
HeLa [12] = assay: Induction of membrane disruption in human HeLa cells assessed as red fluorescence at 2xIC50 after 24 hrs by SYTO9/PI-staining based inverted fluorescence microscopic analysis; conditions: Cell membrane
BE(2)-C [13] = assay: Induction of membrane disruption in human BE(2)-C cells assessed as red fluorescence at 2xIC50 after 24 hrs by SYTO9/PI-staining based inverted fluorescence microscopic analysis; conditions: Cell membrane
HeLa [14] = assay: Induction of membrane disruption in human HeLa cells assessed as membrane blebbing at 2xIC50 after 24 hrs by SYTO9/PI-staining based inverted fluorescence microscopic analysis; conditions: Cell membrane
HeLa [15] = assay: Induction of apoptosis in human HeLa cells assessed as DNA damage at 2xIC50 after 24 hrs by SYTO9/PI-staining based inverted fluorescence microscopic analysis; format: functional, cell-based
BE(2)-C [16] = assay: Induction of apoptosis in human BE(2)-C cells assessed as necrotic cells at 2xIC50 after 24 hrs by Alexa flour 488 annexin V/PI- staining based flow cytometric analysis relative to control; format: functional
HeLa [17] = assay: Induction of ROS generation in human HeLa cells at 0.4 to 200 uM after 24 hrs in presence of ROS quencher, ascorbic acid by DCFH-DA staining based fluorescence analysis; format: functional, cell-based
HeLa [18] = assay: Induction of ROS generation in human HeLa cells at 2xIC50 by DCFH-DA staining based fluorescence analysis; format: functional, cell-based; conditions: TDE = time-dependent effect
HeLa [19] = assay: Induction of pore formation in human HeLa cell membrane at 2xIC50 after 12 hrs by SEM analysis; format: cell-based
BE(2)-C [20] = assay: Induction of pore formation in human BE(2)-C cell membrane at 2xIC50 after 12 hrs by SEM analysis; format: functional, cell-based
HeLa [21] = assay: Induction of membrane blebbing in human HeLa cells at 2xIC50 after 12 hrs by SEM analysis; format: cell-based; conditions: Cell membrane
Candida albicans [22] = assay: Antifungal activity against Candida albicans SC5314 after 48 hrs; format: functional; conditions: SC5314, 48 h
Candida albicans [23] = assay: Potentiation of amphotericin B-induced antifungal activity against Candida albicans SC5314 assessed as amphotericin MIC after 24 to 48 hrs by checker board assay; format: functional
Candida albicans [24] = assay: Antibiofilm activity against 24 hrs preformed biofilm of Candida albicans SC5314 assessed as biofilm cell eradication at 125 uM after 24 hrs by XTT assay relative to control; format: functional
HeLa [25] = assay: Antiproliferative activity against human HeLa cells assessed as cell viability at 4.7 uM in presence of 6.3 uM cisplatin after 48 hrs by MTT assay relative to control; format: functional
BE(2)-C [26] = assay: Antiproliferative activity against human BE(2)-C cells assessed as cell viability at 4.7 uM in presence of 5.3 uM cisplatin after 48 hrs by MTT assay relative to control; format: functional
HeLa [27] = assay: Antiproliferative activity against human HeLa cells assessed as cell viability at 4.7 uM after 48 hrs by MTT assay relative to control; format: functional; conditions: read-out: Activity
BE(2)-C [28] = assay: Antiproliferative activity against human BE(2)-C cells assessed as cell viability at 4.7 uM after 48 hrs by MTT assay relative to control; format: functional; conditions: read-out: Activity
Candida albicans [29] = assay: Antibiofilm activity against 24 hrs preformed biofilm of Candida albicans SC5314 assessed as biofilm cell eradication at 62.5 uM after 24 hrs by XTT assay relative to control; format: functional

SMILES	IC50 (HeLa [1]) [µM]	IC50 (HeLa [2]) [nM]	fractional inhibitory concentration index (FICI) (HeLa [3])	fractional inhibitory concentration index (FICI) (BE(2)-C [4])	Ratio IC50 (BE(2)-C [5])	inhibition [10]	Ratio IC50 [11]	Activity (HeLa [12])	Activity (BE(2)-C [13])	Activity (HeLa [14])	Activity (HeLa [15])	Activity (BE(2)-C [16]) [%]	Activity (HeLa [17])	Activity (HeLa [18])	Activity (HeLa [19])	Activity (BE(2)-C [20])	Activity (HeLa [21])	MIC (Candida albicans [22]) [µM]	MIC (Candida albicans [23]) [µM]	other results
CC(=O)N[C@@H](Cc1ccc(O)cc1)C(=O)NCC(=O)N[C@@H](CCCNC(=N)N)C(=O)N[C@@H](CCCCN)C(=O)N[C@@H](CCCCN)C(=O)N[C@@H](CCCNC(=N)N)C(=O)N[C@@H](CCCNC(=N)N)C(=O)N[C@@H](CCC(N)=O)C(=O)N[C@@H](CCCNC(=N)N)C(=O)N[C@@H](CCCNC(=N)N)C(=O)N[C@@H](CCCNC(=N)N)C(=O)NCC(=O)NCC(=O)NCC(=O)N[C@@H](CC(C)C)C(=O)N[C@@H](CC(C)C)C(=O)N[C@H](C=O)CC(C)C (Ac-YGRKKRRQRRRGGGLLL-aldehyde)	10.2	1900	0.34	0.79	2.5	Active	6	Active	Active	Active	Active	64.9	inactive	Tde	Active	Active	Active	31.2 (≈ 65.5 µg/mL)	0.25	viability at 10.2 µM (HeLa [6]): 52%; Activity (HeLa [7]): 14%; viability at 10.3 µM (BE(2)-C [8]): > 50%; Activity (BE(2)-C [9]): 13%; Activity (Candida albicans [24]): >50%
CC(=O)N[C@@H](Cc1ccc(O)cc1)C(=O)NCC(=O)N[C@@H](CCCNC(=N)N)C(=O)N[C@@H](CCCCN)C(=O)N[C@@H](CCCCN)C(=O)N[C@@H](CCCNC(=N)N)C(=O)N[C@@H](CCCNC(=N)N)C(=O)N[C@@H](CCC(N)=O)C(=O)N[C@@H](CCCNC(=N)N)C(=O)N[C@@H](CCCNC(=N)N)C(=O)N[C@@H](CCCNC(=N)N)C(=O)NCC(=O)NCC(=O)NCC(=O)N[C@@H](Cc1ccc(O)cc1)C(=O)N[C@@H](CC(C)C)C(=O)N[C@@H](Cc1ccccc1)C(=O)N[C@H](C=O)CC(C)C (Ac-YGRKKRRQRRRGGGYLFL-aldehyde)	4.7	1160	0.33	0.49	4	Active	4	Active	Active	Active	Active	65.4	inactive	Tde	Active	Active	Active	15.6 (≈ 35.8 µg/mL)	0.25	Activity (HeLa [25]): 18%; Activity (BE(2)-C [26]): 11%; viability at 4.7 µM (HeLa [27]): > 50%; viability at 4.7 µM (BE(2)-C [28]): > 50%; Activity (Candida albicans [29]): >50%
